Values of other authors as cited in patent US20230233480A1, “TRANSDERMAL THERAPEUTIC SYSTEM FOR THE TRANSDERMAL ADMINISTRATION OF FINGOLIMOD” (LTS LOHMANN THERAPIE-SYSTEME AG, priority 2019, published 2023).

ratio of Cmax fingolimod phosphate/Cmax fingolimod (humans at steady state after administration of 0.5 mg/day): about 0.5 | accumulation of blood levels from first dose to steady state (humans, once-daily dosing): ~11 fold
Structure (SMILES): CCCCCCCCc1ccc(CCC(N)(CO)CO)cc1 [fingolimod, 2-amino-2-[2-(4-octylphenyl)ethyl]propane-1,3-diol]
